The values that follow come from patent US10179914B2, “CDC25A inhibitor for the treatment of drug resistant cancer or for the prevention of tumor relapse” (INSERM (INSTITUT NATIONAL DE LA SANTÉ ET DE LA RECHERCHE …, priority 2014, dated 2019).

Common to all, as to format: cell-based, human
In test [1] the test system is MOLM-14 TKD cells (FLT3-ITD-D835Y). Nature of the test: Cell proliferation, MOLM-14 expressing FLT3-ITD/TKD (D835Y). As to conditions: 200 nM. From the text: Cells were harvested each day and counted after trypan blue staining. The graphs represent three independent experiments.
We consequently developed a cellular model consisting of MOLM-14 cells transfected with a FLT3-ITD mutant with a D835Y amino-acid substitution within the FLT3 kinase domain (FLT3-ITD-D835Y; FLT3-ITD/TKD).

Test [2] has as its system MOLM-14 and MV4-11 cells. Nature of the test: Differentiation of FLT3-ITD AML cell lines (surface markers, morphology). The method, then: (a-b) MOLM-14 and MV4-11 cells were treated for different times with IRC-083864 (100 nM and 200 nM) and the expression of the cell surface markers CD11b, CD14 and CD15 were followed by flow cytometry analysis. (c) MOLM-14 and MV4-11 cells were treated for different times with IRC-083864 (100 nM) and morphological changes were estimated by microscopy after cells were cytospun and stained at days 8 and 13. Original magnification ×100. (d) MOLM-14 cells were treated for different times with IRC-083864 (100 nM) and c-myc expression as well as C/EBPα phosphorylation on serine 21 were analyzed by western blot at day 1, and C/EBPε expression after 6 days of treatment. (e) MOLM-14 cells were transfected with CDC25A shRNA The expression of the cell surface markers CD11b, CD14 and CD15 were followed by flow cytometry analysis at day 3 and 6 (upper panel), and their morphology was analyzed by microscopy after 6 days (lower panel). Original magnification ×100. (f) MOLM-14 cells were transfected with CDC25A siRNA, and their morphology was analyzed by microscopy after 3 days (upper panel). Original magnification ×100. The efficiency of CDC25A siRNA was assessed by western blot analysis (lower panel).
Lentiviral infections. To generate lentiviral vectors expressing CDC25A protein, sequences were cloned into the pTrip-TAL-Ires-GFP lentiviral vector. We used 293-T packaging cells, co-transfected with lentiviral protein (GAG, POL, and ENV) encoding plasmids, and plasmids containing a control or CDC25A genes, separately. Supernatants containing lentivirus were collected 48 h after transfection, during 3 consecutive days. MOLM-14 cells were plated at 5×10^5 cells in 200 μl in serum-free medium and 5 μl of lentiviral supernatant was added during 3 h. Cells were then grown in 10% FBS RPMI medium.
Flow cytometry. Apoptotic cells were detected with Annexin V-FITC detection kit from BD Pharmingen (San Diego, Calif., USA) according to the manufacturer instructions. To evaluate AML cell differentiation, cells were stained for 30 min with the following anti-human monoclonal antibodies: CD11b-PE (Beckman Coulter), CD14-FITC (BD Biosciences), CD15-APC (BD Biosciences). For patient samples, additional hCD45-APC-H7 (BD Biosciences), Annexin V-Pacific Blue (BioLegend, San Diego, Calif., USA) and 7-AAD (Sigma) were used; and for bone marrow mice cells, additional CD33-FITC, CD44-PE Cy7, mCD45-PerCP Cy 5.5, CD14-Alexa 700 were used. Data were collected on a LSRII or a LSRFortessa cytometer (BD Biosciences), and analyzed with FlowJo software. A minimum of 10,000 events was collected.
Morphological examination. […] were spun at 500 rpm for 5 minutes onto glass slides and May-Grünwald-Giemsa stained at the Toulouse University Hospital hematology laboratory.

In test [3] the test system is K562 cells (FLT3 negative). Nature of the test: Cell proliferation, trypan blue counting, K562. As to conditions: 200 nM. The method, then:
(a) MV4-11 and MOLM-14 FLT3-ITD positive cells, KG1, HL-60 and TF-1 FLT3 wild type cells, and K562 FLT3 negative cells were cultured in the presence of the CDC25 inhibitor IRC-083864 (200 nM). Cells were harvested each day and counted after trypan blue coloration. The graph represents three independent experiments.
Cell lines and reagents. Human acute myeloid leukemia cell lines MOLM-14 (Matsuo Y et al, Leukemia 1997) (kindly provided by Martin Carroll, University of Pennsylvania, Philadelphia, Pa., USA) MV4-11, K562 (ACC-102 and ACC-10, DSMZ, Braunschweig, Germany) and FLT3-ITD-expressing murine BaF3 cells were cultured in RPMI 1640 medium (Gibco, Life Technologies, Carlsbad, Calif., USA) supplemented with 10% fetal bovine serum (Sigma, Saint Louis, Calif., USA). TF-1 (ATCC-CRL2003) cells were cultured in RPMI 1640 medium with 10% fetal bovine serum and GM-CSF 2 ng/ml. Concerning MOLM-14 cell line, the presence of a monoallelic 21 bp FLT3-ITD mutation and of an MLL-containing ins(11; 9)(q23;p22p23) were verified (Hematology laboratory of Toulouse University Hospital, Prof E. Delabesse and Dr I. Luquet). KG1 and HL-60 (ACC-14 and ACC-3, DSMZ) cell lines were grown in Iscove's Modified Dulbecco's Medium (IMDM, Gibco) plus 20% FBS. All cells were grown in the presence of 100 units/ml of penicillin and streptomycin (Invitrogen) at 37° C. and 5% CO2.

Test [4] concerns primary AML cells expressing wild-type FLT3. Nature of the test: Clonogenic assay, FLT3 wild-type primary AML cells. The settings on record: 100 and 200 nM, day 7. The method, then:
(c) Primary cells from patients were cultured in semi-solid medium to estimate their clonogenic potential as described in the Methods section, in the presence or the absence of IRC-083864 (100 and 200 nM). 6 FLT3-ITD positive (upper panel) and 4 FLT3-wild type (lower panel) AML primary samples were used for these experiments. Leukemic colonies were scored under an inverted microscope at day 7.
Patient samples. Patient AML samples were obtained after informed consent in accordance with the Declaration of Helsinki and stored at the HIMIP collection. According to the French law, HIMIP collection has been declared to the Ministry of Higher Education and Research (DC 2008-307 collection 1) and obtained a transfer agreement (AC 2008-129) after approbation by ethical committees (Comité de Protection des Personnes Sud-Ouest et Outremer II and APHP ethical committee). Clinical and biological annotations of the samples have been declared to the CNIL (Comité National Informatique et Libertés i.e. Data processing and Liberties National Committee). Frozen cells were thawed in IMDM medium with 20% FBS and immediately processed for treatment. All patients were diagnosed at the Department of Hematology of Toulouse University Hospital.
Clonogenic assay. […] Leukemic colonies were then scored under an inverted microscope.

With `Cc1nc2c(s1)C(=O)C=C(NCCCN(C)CCCNC1=CC(=O)c3nc(-c4cc(F)ccc4F)oc3C1=O)C2=O` [IRC-083864], the “proliferation and death of ITD/TKD cells” value in test [1] was “induced cell proliferation arrest and cell death”. Moreover, in test [2] (100 nM and 200 nM, as early as two days), the “expression of CD11b” value is given as “induced in a dose dependent manner”. Also, in test [2] (100 nM, 8 and 13 days), the morphological analysis entry is listed as “monocytic-like nuclear changes”. Also, the “expression of CD15” value in test [2] (after 8 days) is listed as “either decreased or did not change significantly”. Moreover, the “expression of monocytic marker CD14” value in test [2] (after 8 days, both cell lines) is reported as “increased”. Also, in test [3], the “proliferation of K562” value is recorded as “did not decrease”. The “clonogenic potential of primary cells expressing wild-type FLT3” value in test [4] is recorded as “not sensitive”.
